Experimental findings from paper PMC5218480 (PLoS ONE, 2017) are described below.

For this assay, the system named is MV-4-11 cells. As to the kind of experiment: Gene expression microarray analysis (Affymetrix PrimeView) and GSEA. The conditions noted are these: MV-4-11 cells, 48 hours. Details: RFU PODN (11730768_x_at) / Fold change /veh PODN (11730768_x_at) / RFU LINC00158 (11744669_a_at) / Fold change /veh LINC00158 (11744669_a_at) / RFU DUSP10 (11751237_a_at) / Fold change /veh DUSP10 (11751237_a_at) / RFU ID3 (11757404_x_at) / Fold change /veh ID3 (11757404_x_at) / RFU PLEKHG5 (11737974_s_at) / Fold change /veh PLEKHG5 (11737974_s_at) / RFU LRRC4B (11730491_at) / Fold change /veh LRRC4B (11730491_at) / RFU GIMAP4 (11747438_a_at) / Fold change /veh GIMAP4 (11747438_a_at) / RFU KRT8 (11758183_x_at) / Fold change /veh KRT8 (11758183_x_at) / RFU CNN1 (11734310_a_at) / Fold change /veh CNN1 (11734310_a_at) / RFU VPS37D (11726825_at) / Fold change /veh VPS37D (11726825_at) / RFU C10orf10 (11716522_x_at) / Fold change /veh C10orf10 (11716522_x_at) / RFU KIR2DL2 /// KIR2DL4 /// KIR2DL5A /// KIR2DL5B /// KIR2DS1 /// KIR2DS2 /// KIR2DS3 /// KIR2DS4 /// KIR3DL3 /// KIR3DL3 /// KIR3DS1 (11738374_at) / Fold change /veh KIR2DL2 /// KIR2DL4 /// KIR2DL5A /// KIR2DL5B /// KIR2DS1 /// KIR2DS2 /// KIR2DS3 /// KIR2DS4 /// KIR3DL3 /// KIR3DL3 /// KIR3DS1 (11738374_at) / RFU C1QL1 (11718748_at) / Fold change /veh C1QL1 (11718748_at) / RFU TMPRSS4 (11747572_a_at) / Fold change /veh TMPRSS4 (11747572_a_at) / RFU HAMP (11756126_x_at) / Fold change /veh HAMP (11756126_x_at) / RFU RNFT2 (11725882_a_at) / Fold change /veh RNFT2 (11725882_a_at) / RFU NR4A2 (11747474_a_at) / Fold change /veh NR4A2 (11747474_a_at) / RFU ABCC12 (11746883_a_at) / Fold change /veh ABCC12 (11746883_a_at) / RFU TMEM136 (11760407_x_at) / Fold change /veh TMEM136 (11760407_x_at) / RFU CLDN22 /// WWC2 (11732394_at) / Fold change /veh CLDN22 /// WWC2 (11732394_at) / RFU HLA-DPB1 (11760878_x_at) / Fold change /veh HLA-DPB1 (11760878_x_at) / RFU SPINT1 (11716480_a_at) / Fold change /veh SPINT1 (11716480_a_at) / RFU GAP43 (11754022_s_at) / Fold change /veh GAP43 (11754022_s_at) / RFU A4GNT (11735810_at) / Fold change /veh A4GNT (11735810_at) / RFU PRB3 (11715151_x_at) / Fold change /veh PRB3 (11715151_x_at) / RFU TUBB4B (11761932_at) / Fold change /veh TUBB4B (11761932_at) / RFU CAPN14 (11732068_a_at) / Fold change /veh CAPN14 (11732068_a_at) / RFU TMCC2 (11721928_a_at) / Fold change /veh TMCC2 (11721928_a_at) / RFU IRGQ (11745062_a_at) / Fold change /veh IRGQ (11745062_a_at) / RFU FAM174B (11720279_a_at) / Fold change /veh FAM174B (11720279_a_at) / RFU TMPRSS4 (11748680_a_at) / Fold change /veh TMPRSS4 (11748680_a_at) / RFU FAM212B (11763350_a_at) / Fold change /veh FAM212B (11763350_a_at) / RFU PLEKHG5 (11743358_a_at) / Fold change /veh PLEKHG5 (11743358_a_at) / RFU ZSCAN30 (11745921_a_at) / Fold change /veh ZSCAN30 (11745921_a_at) / RFU CMKLR1 (11741424_a_at) / Fold change /veh CMKLR1 (11741424_a_at) / RFU LOC101060620 /// MAPK8IP1 (11723275_at) / Fold change /veh LOC101060620 /// MAPK8IP1 (11723275_at) / RFU SPTSSB (11747773_x_at) / Fold change /veh SPTSSB (11747773_x_at) / RFU PRSS12 (11739890_at) / Fold change /veh PRSS12 (11739890_at) / RFU BIN1 (11741810_x_at) / Fold change /veh BIN1 (11741810_x_at) / RFU WNT11 (11732464_a_at) / Fold change /veh WNT11 (11732464_a_at) / RFU C10orf10 (11716521_a_at) / Fold change /veh C10orf10 (11716521_a_at) / RFU C5orf56 (11738089_at) / Fold change /veh C5orf56 (11738089_at) / RFU CYB561 (11721691_x_at) / Fold change /veh CYB561 (11721691_x_at) / RFU ANKRD19P (11752326_a_at) / Fold change /veh ANKRD19P (11752326_a_at) / RFU OR2T12 /// OR2T33 /// OR2T8 (11738714_s_at) / Fold change /veh OR2T12 /// OR2T33 /// OR2T8 (11738714_s_at) / RFU VCAN (11748164_a_at) / Fold change /veh VCAN (11748164_a_at) / RFU JSRP1 (11732532_at) / Fold change /veh JSRP1 (11732532_at) / RFU KRTAP10-11 (11738290_x_at) / Fold change /veh KRTAP10-11 (11738290_x_at) / RFU MYO3A (11730013_a_at) / Fold change /veh MYO3A (11730013_a_at) / RFU EBF3 (11725865_a_at) / Fold change /veh EBF3 (11725865_a_at) / RFU CAMK2N1 (11719241_x_at) / Fold change /veh CAMK2N1 (11719241_x_at) / RFU C5orf56 (11738088_a_at) / Fold change /veh C5orf56 (11738088_a_at) / RFU OLFML3 (11715873_a_at) / Fold change /veh OLFML3 (11715873_a_at) / RFU LOC100653217 /// NTM (11731650_a_at) / Fold change /veh LOC100653217 /// NTM (11731650_a_at) / RFU MAPK11 (11762145_a_at) / Fold change /veh MAPK11 (11762145_a_at) / RFU FIZ1 (11724087_x_at) / Fold change /veh FIZ1 (11724087_x_at) / RFU OASL (11726364_x_at) / Fold change /veh OASL (11726364_x_at) / RFU SOX15 (11748057_x_at) / Fold change /veh SOX15 (11748057_x_at) / RFU CD79A (11719716_a_at) / Fold change /veh CD79A (11719716_a_at) / RFU HIST1H1D (11736915_at) / Fold change /veh HIST1H1D (11736915_at) / RFU CASKIN2 (11723855_a_at) / Fold change /veh CASKIN2 (11723855_a_at) / RFU LOC730098 (11760151_x_at) / Fold change /veh LOC730098 (11760151_x_at) / RFU OR4N2 (11742367_at) / Fold change /veh OR4N2 (11742367_at) / RFU PRRT2 (11749266_a_at) / Fold change /veh PRRT2 (11749266_a_at) / RFU SNX32 (11753110_a_at) / Fold change /veh SNX32 (11753110_a_at) / RFU CDHR5 (11726645_a_at) / Fold change /veh CDHR5 (11726645_a_at) / RFU RCAN1 (11760418_a_at) / Fold change /veh RCAN1 (11760418_a_at) / RFU FAM167A (11723789_a_at) / Fold change /veh FAM167A (11723789_a_at) / RFU FAM26E (11764081_at) / Fold change /veh FAM26E (11764081_at) / RFU ISYNA1 (11749810_s_at) / Fold change /veh ISYNA1 (11749810_s_at) / RFU ACY1 (11761880_at) / Fold change /veh ACY1 (11761880_at) / RFU 11764098_at / Fold change /veh 11764098_at / RFU SAMD14 (11745864_x_at) / Fold change /veh SAMD14 (11745864_x_at) / RFU NPB (11741838_a_at) / Fold change /veh NPB (11741838_a_at) / RFU TMPRSS6 (11731388_a_at) / Fold change /veh TMPRSS6 (11731388_a_at) / RFU KRTAP10-2 (11738614_at) / Fold change /veh KRTAP10-2 (11738614_at) / RFU ARHGAP8 /// PRR5-ARHGAP8 (11727945_x_at) / Fold change /veh ARHGAP8 /// PRR5-ARHGAP8 (11727945_x_at) / RFU KRTAP5-7 /// NADSYN1 (11734609_at) / Fold change /veh KRTAP5-7 /// NADSYN1 (11734609_at) / RFU RASL12 (11751679_a_at) / Fold change /veh RASL12 (11751679_a_at) / RFU CDKN2B (11736163_a_at) / Fold change /veh CDKN2B (11736163_a_at) / RFU PRF1 (11729649_at) / Fold change /veh PRF1 (11729649_at) / RFU, ZNF638 /// ZNF638-IT1 / Fold change vs veh, ZNF638 /// ZNF638-IT1 / RFU, PANK3 / Fold change vs veh, PANK3 / RFU, SH3YL1 / Fold change vs veh, SH3YL1 / RFU, ZEB2 / Fold change vs veh, ZEB2 / RFU, NRIP1 / Fold change vs veh, NRIP1 / RFU, PTTG1IP / Fold change vs veh, PTTG1IP / RFU, CAPN2 / Fold change vs veh, CAPN2 / RFU, MED14 / Fold change vs veh, MED14 / RFU, SNORA58 / Fold change vs veh, SNORA58 / RFU, C1orf63 / Fold change vs veh, C1orf63 / RFU, LRRFIP1 / Fold change vs veh, LRRFIP1 / RFU, NDUFAF7 / Fold change vs veh, NDUFAF7 / RFU, SLC12A2 / Fold change vs veh, SLC12A2 / RFU, IBTK / Fold change vs veh, IBTK / RFU, ESF1 / Fold change vs veh, ESF1 / Fold change vs veh, TMEM50B / RFU, TAOK1 / Fold change vs veh, TAOK1 / RFU, ACBD3 / Fold change vs veh, ACBD3 / RFU, TMA16 / Fold change vs veh, TMA16 / RFU, RWDD3 / Fold change vs veh, RWDD3 / RFU, BCAT1 / Fold change vs veh, BCAT1 / RFU, EDEM3 / Fold change vs veh, EDEM3 / RFU, TMEM33 / Fold change vs veh, TMEM33 / RFU, WDR75 / Fold change vs veh, WDR75 / RFU, AHCTF1 / Fold change vs veh, AHCTF1 / RFU, TFRC / Fold change vs veh, TFRC / RFU, ZDHHC17 / Fold change vs veh, ZDHHC17 / RFU, NOM1 / Fold change vs veh, NOM1 / RFU, ARL8B / Fold change vs veh, ARL8B / RFU, ZBTB11 / Fold change vs veh, ZBTB11 / RFU, TAMM41 / Fold change vs veh, TAMM41 / RFU, KIAA1704 /// LOC100996395 / Fold change vs veh, KIAA1704 /// LOC100996395 / RFU, ING1 / Fold change vs veh, ING1 / RFU, TRMT61B / Fold change vs veh, TRMT61B / RFU, FUBP3 / Fold change vs veh, FUBP3 / RFU, TP53 / Fold change vs veh, TP53 / RFU, TNKS2 / Fold change vs veh, TNKS2 / RFU, ZFP14 / Fold change vs veh, ZFP14 / RFU, ACTR2 / Fold change vs veh, ACTR2 / RFU, PPP3R1 / Fold change vs veh, PPP3R1 / RFU, PIK3R1 / Fold change vs veh, PIK3R1 / RFU, HNRNPA1 / Fold change vs veh, HNRNPA1 / RFU, RNF170 / Fold change vs veh, RNF170 / RFU, ZNF28 / Fold change vs veh, ZNF28 / RFU, RNGTT / Fold change vs veh, RNGTT / RFU, OGT / Fold change vs veh, OGT / RFU, BRD1 / Fold change vs veh, BRD1 / RFU, MARS / Fold change vs veh, MARS / RFU, ZNF655 / Fold change vs veh, ZNF655 / RFU, FAHD1 / Fold change vs veh, FAHD1 / RFU, BDP1 / Fold change vs veh, BDP1 / RFU, LRRCC1 / Fold change vs veh, LRRCC1 / RFU, ARID1A / Fold change vs veh, ARID1A / RFU, ZNF146 / Fold change vs veh, ZNF146 / RFU, ZNF330 / Fold change vs veh, ZNF330 / RFU, GPN3 / Fold change vs veh, GPN3 / RFU, C9orf123 / Fold change vs veh, C9orf123 / RFU, N4BP2L2 / Fold change vs veh, N4BP2L2 / RFU, ARFIP1 / Fold change vs veh, ARFIP1 / RFU, FAM179B / Fold change vs veh, FAM179B / RFU, BCL10 / Fold change vs veh, BCL10 / RFU, UHRF1BP1L / Fold change vs veh, UHRF1BP1L / RFU, BET1 / Fold change vs veh, BET1 / RFU, CNOT2 / Fold change vs veh, CNOT2 / RFU, ZNF268 / Fold change vs veh, ZNF268 / Fold change vs veh, ZNF507 / RFU, DGCR2 / Fold change vs veh, DGCR2 / RFU, WDSUB1 / Fold change vs veh, WDSUB1 / Fold change vs veh, HSP90B1 /// MIR3652 / RFU, ADSS / Fold change vs veh, ADSS / RFU, GK / Fold change vs veh, GK / RFU, ZNF148 / Fold change vs veh, ZNF148 / RFU, TAF9 / Fold change vs veh, TAF9 / RFU, SLC1A5 / Fold change vs veh, SLC1A5 / RFU, SLMO2 / Fold change vs veh, SLMO2 / RFU, ABCC4 / Fold change vs veh, ABCC4 / RFU, LOC101060439 /// RAP1B / Fold change vs veh, LOC101060439 /// RAP1B / RFU, RFX7 / Fold change vs veh, RFX7 / RFU, GTPBP10 / Fold change vs veh, GTPBP10 / RFU, CNEP1R1 / Fold change vs veh, CNEP1R1 / RFU, BIVM-ERCC5 /// ERCC5 / Fold change vs veh, BIVM-ERCC5 /// ERCC5 / RFU, ILF3 / Fold change vs veh, ILF3 / RFU 11762660_at / Fold change /veh 11762660_at / RFU VCAN (11757783_s_at) / Fold change /veh VCAN (11757783_s_at) / RFU DDX43 (11728927_at) / Fold change /veh DDX43 (11728927_at) / RFU KRT8 (11758188_x_at) / Fold change /veh KRT8 (11758188_x_at) / RFU NKD1 (11759106_at) / Fold change /veh NKD1 (11759106_at) / RFU SRD5A1 (11742802_a_at) / Fold change /veh SRD5A1 (11742802_a_at) / RFU TPSAB1 /// TPSB2 (11721975_s_at) / Fold change /veh TPSAB1 /// TPSB2 (11721975_s_at) / RFU GSTM3 (11746129_a_at) / Fold change /veh GSTM3 (11746129_a_at) / RFU IL23R (11737362_x_at) / Fold change /veh IL23R (11737362_x_at) / RFU TMEM51 (11727254_a_at) / Fold change /veh TMEM51 (11727254_a_at) / RFU PIWIL2 (11732686_x_at) / Fold change /veh PIWIL2 (11732686_x_at) / RFU ORM1 (11744905_x_at) / Fold change /veh ORM1 (11744905_x_at) / RFU CCDC152 (11743942_at) / Fold change /veh CCDC152 (11743942_at) / RFU ECM1 (11717891_a_at) / Fold change /veh ECM1 (11717891_a_at) / RFU IL23R (11748794_a_at) / Fold change /veh IL23R (11748794_a_at) / RFU TNFAIP8L3 (11732012_x_at) / Fold change /veh TNFAIP8L3 (11732012_x_at) / RFU MBOAT4 (11741988_at) / Fold change /veh MBOAT4 (11741988_at) / RFU 11764193_at / Fold change /veh 11764193_at / RFU TMEM53 (11763286_at) / Fold change /veh TMEM53 (11763286_at) / RFU MAGEB2 (11727129_at) / Fold change /veh MAGEB2 (11727129_at) / RFU TMEM200A (11744735_a_at) / Fold change /veh TMEM200A (11744735_a_at) / RFU CCDC152 (11751479_a_at) / Fold change /veh CCDC152 (11751479_a_at) / RFU FAM211A (11726209_a_at) / Fold change /veh FAM211A (11726209_a_at) / RFU RGS16 (11746705_a_at) / Fold change /veh RGS16 (11746705_a_at) / RFU VCAN (11755009_s_at) / Fold change /veh VCAN (11755009_s_at) / RFU RHOB (11743442_s_at) / Fold change /veh RHOB (11743442_s_at) / RFU RGS16 (11720943_a_at) / Fold change /veh RGS16 (11720943_a_at) / RFU RGS16 (11720944_at) / Fold change /veh RGS16 (11720944_at) / RFU, VPS4B / Fold change vs veh, VPS4B / RFU, CREB1 / Fold change vs veh, CREB1 / RFU, DNAJC13 / Fold change vs veh, DNAJC13 / RFU, GNAQ / Fold change vs veh, GNAQ / RFU, CDK5R1 / Fold change vs veh, CDK5R1 / RFU, ZRANB3 / Fold change vs veh, ZRANB3 / RFU, CUL4A / Fold change vs veh, CUL4A / RFU, CCNY / Fold change vs veh, CCNY / RFU, UFL1 / Fold change vs veh, UFL1 / RFU, COG3 / Fold change vs veh, COG3 / RFU, DIAPH2 / Fold change vs veh, DIAPH2 / RFU, SKA2 / Fold change vs veh, SKA2 / RFU, AFF3 / Fold change vs veh, AFF3 / RFU, LMF1 / Fold change vs veh, LMF1 / RFU, IPO11 / Fold change vs veh, IPO11 / RFU, DFFB / Fold change vs veh, DFFB / RFU, FOXP1 / Fold change vs veh, FOXP1 / RFU, CARD8 / Fold change vs veh, CARD8 / RFU, STRN3 / Fold change vs veh, STRN3 / RFU, ADK / Fold change vs veh, ADK / RFU, RASSF2 / Fold change vs veh, RASSF2 / RFU, WIPF1 / Fold change vs veh, WIPF1 / RFU, LARP1B / Fold change vs veh, LARP1B / RFU, RASA1 / Fold change vs veh, RASA1 / RFU, RB1 / Fold change vs veh, RB1 / RFU, PPFIA1 / Fold change vs veh, PPFIA1 / RFU, MAT2A / Fold change vs veh, MAT2A / RFU, CCT5 / Fold change vs veh, CCT5 / RFU, WDR92 / Fold change vs veh, WDR92 / RFU, CUX1 / Fold change vs veh, CUX1 / RFU, TTC7A / Fold change vs veh, TTC7A / RFU, TMEM135 / Fold change vs veh, TMEM135 / RFU, DEPTOR / Fold change vs veh, DEPTOR / RFU, CPM / Fold change vs veh, CPM / RFU, DNAJB6 / Fold change vs veh, DNAJB6 / RFU, CACNA2D3 / Fold change vs veh, CACNA2D3 / RFU, DTX4 / Fold change vs veh, DTX4 / RFU, TFCP2 / Fold change vs veh, TFCP2 / RFU, GMCL1 /// GMCL1P1 / Fold change vs veh, GMCL1 /// GMCL1P1 / RFU, AEBP2 / Fold change vs veh, AEBP2 / RFU, SNHG1 /// SNORD22 /// SNORD25 /// SNORD26 /// SNORD27 /// SNORD28 /// SNORD29 /// SNORD31 / Fold change vs veh, SNHG1 /// SNORD22 /// SNORD25 /// SNORD26 /// SNORD27 /// SNORD28 /// SNORD29 /// SNORD31 / Fold change (Aza/veh), C12orf56 (ProbeSet 11735607_a_at) / Fold change (ACY-1035/veh), C12orf56 (ProbeSet 11735607_a_at) / Fold change (Aza/veh), FGFR1OP (ProbeSet 11751329_s_at) / Fold change (ACY-1035/veh), FGFR1OP (ProbeSet 11751329_s_at) / Fold change (Aza/veh), VPS36 (ProbeSet 11739960_a_at) / Fold change (ACY-1035/veh), VPS36 (ProbeSet 11739960_a_at) / RFU SYPL1 (11715823_x_at) / Fold change /veh SYPL1 (11715823_x_at) / RFU IGFBP7 (11715501_s_at) / Fold change /veh IGFBP7 (11715501_s_at) / RFU REEP3 (11722064_at) / Fold change /veh REEP3 (11722064_at) / RFU IGLL1 (11728026_x_at) / Fold change /veh IGLL1 (11728026_x_at): dose or concentration left out as unconfirmed. The format is cell-based, human.

Take `Nc1ncn([C@@H]2O[C@H](CO)[C@@H](O)[C@H]2O)c(=O)n1` [azacitidine]: the “Fold change /veh IL23R (11748794_a_at)” value is listed as 1.48.
